Measurements from PubChem BioAssay (NCI).
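96-well plates; 48 h exposure; 5 concentrations. Endpoints by linear interpolation between flanking doses. Not reached: highest tested concentration assigned. At the GI50, growth is halved. TGI marks complete inhibition of growth.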

Columns and labels:
Assay in all cases: DTP human tumour cell line panel, 48 h
SR leukemia = system: SR leukemia
HOP-92 NSCLC = system: HOP-92 NSCLC
SF-295 CNS = system: SF-295 CNS
SF-539 CNS = system: SF-539 CNS
OVCAR-4 ovarian = system: OVCAR-4 ovarian
A549 NSCLC = system: A549 NSCLC
RPMI-8226 leukemia = system: RPMI-8226 leukemia
OVCAR-5 ovarian = system: OVCAR-5 ovarian
DLD-1 colon = system: DLD-1 colon

| Compound | TGI (SR leukemia) [µM] | TGI (HOP-92 NSCLC) [µM] | TGI (SF-295 CNS) [µM] | TGI (SF-539 CNS) [µM] | TGI (OVCAR-4 ovarian) [µM] | TGI (A549 NSCLC) [µM] | TGI (RPMI-8226 leukemia) [µM] | TGI (OVCAR-5 ovarian) [µM] | GI50 (SR leukemia) [µM] | GI50 (HOP-92 NSCLC) [µM] | GI50 (SF-295 CNS) [µM] | GI50 (SF-539 CNS) [µM] | GI50 (OVCAR-4 ovarian) [µM] | GI50 (A549 NSCLC) [µM] | GI50 (RPMI-8226 leukemia) [µM] | GI50 (OVCAR-5 ovarian) [µM] | GI50 (DLD-1 colon) [µM] | TGI (DLD-1 colon) [µM] |
| --- | --- | --- | --- | --- | --- | --- | --- | --- | --- | --- | --- | --- | --- | --- | --- | --- | --- | --- |
| O=C1C=CC(=Nc2ccccc2)c2ccccc21 | 37.1 | 28.4 | 21.1 | 29 | 27.4 | 31 | 38.3 | 33.4 |  |  |  |  |  |  |  |  |  |  |
| COc1ccc2c(Cc3c4ccccc4cc4ccccc34)cncc2c1O | 0.551 | 13.2 | 8.35 | 0.546 | > 74.2 | > 39.8 | 17 | > 57.4 |  |  |  |  |  |  |  |  |  |  |
| c1ccc(CN2CCC3(CC2)SSC2(CCN(Cc4ccccc4)CC2)SS3)cc1 | > 100 | > 100 | > 100 | > 100 | > 100 | > 100 | > 100 | > 100 |  |  |  |  |  |  |  |  |  |  |
| NCCCn1c2c(c3ccc([N+](=O)[O-])cc3c1=O)C(=O)c1cc(-c3ccccc3)ccc1-2 | 0.46 | 3.15 | 3.45 | 2.84 | 1.62 | 0.552 | 1.45 | 2.95 | 0.183 | 1.36 | 1.79 | 1.37 | 0.399 | 0.237 | 0.348 | 1.48 |  |  |
| CCCCCCCCCCC/C=C\C[C@H](O)C/C=C1/C(=O)C=C[C@@H]1C/C=C\CCCC(=O)OC | 3.97 | 11.9 | 6.74 | 3.71 | 3.68 | 33.3 | 1.62 | 8.58 | 0.72 | 5.43 | 1.37 | 1.02 | 0.862 | 5.96 | 0.534 | 1.7 |  |  |
| CC(=O)[CH-]C(=O)c1ccccc1.CC(=O)[CH-]C(=O)c1ccccc1.CC1(C)OCC(C2OC3OC(C)(C)OC3C2[O-])O1.CC1(C)OCC(C2OC3OC(C)(C)OC3C2[O-])O1.[Ti+4] (centres undefined) |  | 22.8 | 30.8 | 28 | 68.4 | 38 |  | 29 |  | 6.84 | 13.8 | 13.6 | 20.4 | 15.3 |  | 12.3 | 18.5 | 52.5 |
| CCC(CCC(C)C1CCC2C3CC=C4CC(OC5OC(CO)C(O)C(O)C5O)CCC4(C)C3CCC12C)C(C)C (centres undefined) | > 100 | > 100 | > 100 | > 100 | > 100 | > 100 | > 100 | > 100 |  |  |  |  |  |  |  |  |  |  |
| COc1cccc(-n2cc(-c3nc(Nc4cc(C)[nH]n4)c4ccccc4n3)nn2)c1 | 13.5 | 9.53 | 11 | 11.1 | 9.57 | 11.4 | 13.8 | 12 | 2.03 | 1.67 | 2.88 | 4.25 | 2.24 | 2.33 | 3.57 | 3.51 |  |  |
| O=C(O)C1C2C=CC(C2)C1C(=O)O (centres undefined) | > 100 | > 100 | > 100 | > 100 | > 100 | > 100 | > 100 | > 100 | > 100 | > 100 | > 100 | > 100 | > 100 | > 100 | > 100 | > 100 |  |  |
| C=C1CC[C@@H]2[C@](C)(COC(C)=O)[C@H](OC(C)=O)CC[C@@]2(C)[C@@H]1CC(Nc1ccc(S(=O)(=O)Nc2cc(C)on2)cc1)C1=CCOC1=O (some centres undefined) | 3.36 | 8 | 21 | 3.06 | 10.5 | 15.4 | 5.43 | 4.05 | 0.375 | 3.07 | 8.13 | 1.59 | 2.91 | 4.75 | 1.54 | 2.16 |  |  |
| CCC(C)[C@H](NC(=O)NC(=O)NC(=O)CI)C(=O)OC (some centres undefined) | 4.15 | 7.3 | 28.9 | 22.8 | 8.68 | 37 | 9.27 | 32.3 | 1.37 | 2.67 | 15.2 | 10.3 | 2.48 | 19.5 | 3.16 | 15 |  |  |
| CC1=C(C(=O)Nc2ccc3[nH]ncc3c2)C(c2ccc(Cl)c(Cl)c2)CC(=O)N1 (centres undefined) | > 25 | > 7.6 | > 25 | > 25 | > 25 | > 25 | > 25 | > 25 | > 25 | 0.277 | > 19.5 | > 16.8 | > 25 | > 25 | > 25 | > 25 |  |  |
| COc1cc2oc(-c3ccc(O)cc3O)c(CC=C(C)C)c(=O)c2c(O)c1/C=C/C(C)C | 4.44 | 7.3 | 12.3 | 10.4 | 8.44 | 7.75 | 8.73 | 18.7 |  |  |  |  |  |  |  |  |  |  |
| CC(=O)c1ccc(Nc2nc(Nc3ccc(F)cc3)nc(Nc3ccc(F)cc3)n2)cc1 | > 100 | 31.5 | 24.2 | 12.1 | 41.3 | 32.5 | > 100 | > 100 | 4.24 | 5.64 | 7.13 | 3.07 | 10.9 | 5.81 | 94.9 | 35.1 |  |  |
| N#Cc1ccsc1NC(=O)COC(=O)c1cccc(S(=O)(=O)N2CCc3ccccc32)c1 | > 100 | > 100 | > 100 | > 100 | > 100 | > 100 | > 100 | > 100 | 22.9 | 40.1 | 33.4 | 15.1 | 64.7 | 45.2 | 17.4 | 35.2 |  |  |
| O=C1CCCCC=C1C[N+](=O)[O-] | 12.3 | 51.9 | > 100 | 74.2 | 46 | > 100 | 58.5 | 41.6 | 3.7 | 29 | 46.4 | 27.7 | 21.4 | 38.2 | 25.5 | 21.9 |  |  |
